Results reported in ChEMBL document CHEMBL5338786, “In Silico-Guided Rational Drug Design and Synthesis of Novel 4-(Thiophen-2-yl)butanamides as Potent and Selective TRPV1 Agonists” (J Med Chem, 2023).
Each block holds one compound with its values, some of them ahead of it. Active and inactive are the calls of the source.

Assays:
[1] = biological target: T1, Transient receptor potential cation channel subfamily A member 1 (Rattus norvegicus, UniProt Q6RI86); assay: (§1) Agonist activity at rat recombinant TRPA1 expressed in HEK293 cells assessed as increase in intracellular calcium accumulation by Fluo4-AM based assay; assay type: cell-based
[2] = biological target: T1, Transient receptor potential cation channel subfamily A member 1; assay: Antagonist activity at rat recombinant TRPA1 expressed in HEK293 cells assessed as desensitization by measuring inhibition of allyl isothiocyanate induced intracellular calcium accumulation preincubated for 5 mins followed by allyl isothiocyanate stimulation by Fluo4-AM based assay; assay type: cell-based
[3] = biological target: T2, Transient receptor potential cation channel subfamily V member 1 (Homo sapiens, UniProt Q8NER1); assay: Agonist activity at human recombinant TRPV1 expressed in HEK293 cells assessed as increase in intracellular calcium level by Fluo4-AM based assay; assay type: cell-based
[4] = biological target: T2, Transient receptor potential cation channel subfamily V member 1; assay: Antagonist activity at human recombinant TRPV1 expressed in HEK293 cells assessed as desensitization by measuring inhibition of capsaicin-induced intracellular calcium accumulation preincubated for 5 mins followed by capsaicin stimulation by Fluo4-AM based assay; assay type: cell-based
[5] = biological target: Transient receptor potential cation channel subfamily A member 1 (Rattus norvegicus) (UniProt Q6RI86); assay: Agonist activity at rat recombinant TRPA1 expressed in HEK293 cells assessed as increase in intracellular calcium accumulation by measuring efficacy by Fluo4-AM based assay relative to allyl isothiocyanate; assay type: cell-based
[6] = biological target: Transient receptor potential cation channel subfamily A member 1 (Rattus norvegicus) (UniProt Q6RI86); assay: as §1; assay type: cell-based
HUVEC = assay: Cytotoxicity against HUVEC cells expressing TRPV1 receptors assessed as reduction in cell viability at 0.1 to 10 uM measured after 48 hrs by Alamar Blue assay; assay type: toxicity, cell-based; details: human, dose 0.1-10 µM
HaCaT = assay: Cytotoxicity against human HaCaT cells expressing TRPV1 receptors assessed as reduction in cell viability at 0.1 to 10 uM measured after 48 hrs by Alamar Blue assay; assay type: toxicity, cell-based; details: dose 0.1-10 µM
[7] = biological target: Transient receptor potential cation channel subfamily V member 4 (Rattus norvegicus, UniProt Q9ERZ8); assay: Antagonist activity at rat recombinant TRPV4 expressed in HEK293 cells assessed as desensitization by measuring inhibition of GSK1016790A induced intracellular calcium accumulation preincubated for 5 mins by Fluo4-AM based assay; assay type: cell-based
[8] = biological target: Transient receptor potential cation channel subfamily M member 8 (Rattus norvegicus, UniProt Q8R455); assay: Antagonist activity at rat recombinant TRPM8 expressed in HEK293 cells assessed as desensitization by measuring inhibition of icilin induced intracellular calcium accumulation preincubated for 5 mins by Fluo4-AM based assay; assay type: cell-based
[9] = Toxicity in C57BL/6J mouse assessed as alteration in nociceptive threshold at 0.0075 to 0.15 ug per paw, sc measured after 10 mins; assay type: organism-based; details: in vivo, dose 0.0075-0.15 µg
Mus musculus [10] = assay: Antinociceptive activity against formalin-induced nociception in C57BL/6J mouse assessed as total time of nociceptive response at 0.0015 ug per paw, sc pretreated for 10 min followed by formalin challenge and measured after 20 to 60 mins (reference value: 2.18 +/- 0.183 min); assay type: functional; details: dose 0.0015 µg, time 30-70 min
Mus musculus [11] = assay: Antinociceptive activity against formalin-induced nociception in C57BL/6J mouse assessed as total time of nociceptive response at 0.15 ug per paw, sc pretreated for 10 min followed by formalin challenge and measured after 20 to 60 mins (reference value: 2.18 +/- 0.183 min); assay type: functional; details: dose 0.15 µg, time 30-70 min
Mus musculus [12] = assay: Antinociceptive activity against formalin-induced nociception in C57BL/6J mouse assessed as total time of nociceptive response at 0.0075 ug per paw, sc pretreated for 10 min followed by formalin challenge and measured after 20 to 60 mins (reference value: 2.18 +/- 0.183 min); assay type: functional; details: dose 0.0075 µg, time 30-70 min
[13] = biological target: Transient receptor potential cation channel subfamily V member 4 (Rattus norvegicus) (UniProt Q9ERZ8); assay: Agonist activity at rat recombinant TRPV4 expressed in HEK293 cells assessed as increase in intracellular calcium accumulation by measuring efficacy by Fluo4-AM based assay relative to ionomycin; assay type: cell-based; details: filed as agonist
Chain of Transient receptor potential cation channel subfamily V member 4 (Rattus norvegicus) (Q9ERZ8 whole entry): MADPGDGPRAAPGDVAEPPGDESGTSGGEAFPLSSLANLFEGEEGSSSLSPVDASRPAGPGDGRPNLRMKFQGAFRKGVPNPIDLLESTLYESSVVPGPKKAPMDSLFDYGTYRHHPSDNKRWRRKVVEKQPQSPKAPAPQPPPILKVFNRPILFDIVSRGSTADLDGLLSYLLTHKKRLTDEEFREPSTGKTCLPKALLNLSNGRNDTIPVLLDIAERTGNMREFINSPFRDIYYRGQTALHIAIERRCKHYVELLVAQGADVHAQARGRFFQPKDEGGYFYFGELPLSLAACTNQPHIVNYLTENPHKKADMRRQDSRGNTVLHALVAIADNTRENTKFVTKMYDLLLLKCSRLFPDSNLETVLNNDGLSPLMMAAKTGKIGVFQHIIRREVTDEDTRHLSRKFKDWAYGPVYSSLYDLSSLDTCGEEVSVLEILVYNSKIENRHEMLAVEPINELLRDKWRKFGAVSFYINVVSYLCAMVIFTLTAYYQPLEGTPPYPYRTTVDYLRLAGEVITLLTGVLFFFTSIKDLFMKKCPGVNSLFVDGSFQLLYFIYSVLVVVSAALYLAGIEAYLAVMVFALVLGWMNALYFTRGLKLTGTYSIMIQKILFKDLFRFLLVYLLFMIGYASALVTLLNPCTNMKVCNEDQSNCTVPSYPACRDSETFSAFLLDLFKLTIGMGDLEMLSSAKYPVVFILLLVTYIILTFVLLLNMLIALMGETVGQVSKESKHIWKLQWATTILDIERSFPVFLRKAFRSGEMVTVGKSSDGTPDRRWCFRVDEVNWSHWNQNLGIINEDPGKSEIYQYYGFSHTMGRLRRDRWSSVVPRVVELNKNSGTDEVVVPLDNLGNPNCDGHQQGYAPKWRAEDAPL

Chain of Transient receptor potential cation channel subfamily M member 8 (Q8R455 whole entry): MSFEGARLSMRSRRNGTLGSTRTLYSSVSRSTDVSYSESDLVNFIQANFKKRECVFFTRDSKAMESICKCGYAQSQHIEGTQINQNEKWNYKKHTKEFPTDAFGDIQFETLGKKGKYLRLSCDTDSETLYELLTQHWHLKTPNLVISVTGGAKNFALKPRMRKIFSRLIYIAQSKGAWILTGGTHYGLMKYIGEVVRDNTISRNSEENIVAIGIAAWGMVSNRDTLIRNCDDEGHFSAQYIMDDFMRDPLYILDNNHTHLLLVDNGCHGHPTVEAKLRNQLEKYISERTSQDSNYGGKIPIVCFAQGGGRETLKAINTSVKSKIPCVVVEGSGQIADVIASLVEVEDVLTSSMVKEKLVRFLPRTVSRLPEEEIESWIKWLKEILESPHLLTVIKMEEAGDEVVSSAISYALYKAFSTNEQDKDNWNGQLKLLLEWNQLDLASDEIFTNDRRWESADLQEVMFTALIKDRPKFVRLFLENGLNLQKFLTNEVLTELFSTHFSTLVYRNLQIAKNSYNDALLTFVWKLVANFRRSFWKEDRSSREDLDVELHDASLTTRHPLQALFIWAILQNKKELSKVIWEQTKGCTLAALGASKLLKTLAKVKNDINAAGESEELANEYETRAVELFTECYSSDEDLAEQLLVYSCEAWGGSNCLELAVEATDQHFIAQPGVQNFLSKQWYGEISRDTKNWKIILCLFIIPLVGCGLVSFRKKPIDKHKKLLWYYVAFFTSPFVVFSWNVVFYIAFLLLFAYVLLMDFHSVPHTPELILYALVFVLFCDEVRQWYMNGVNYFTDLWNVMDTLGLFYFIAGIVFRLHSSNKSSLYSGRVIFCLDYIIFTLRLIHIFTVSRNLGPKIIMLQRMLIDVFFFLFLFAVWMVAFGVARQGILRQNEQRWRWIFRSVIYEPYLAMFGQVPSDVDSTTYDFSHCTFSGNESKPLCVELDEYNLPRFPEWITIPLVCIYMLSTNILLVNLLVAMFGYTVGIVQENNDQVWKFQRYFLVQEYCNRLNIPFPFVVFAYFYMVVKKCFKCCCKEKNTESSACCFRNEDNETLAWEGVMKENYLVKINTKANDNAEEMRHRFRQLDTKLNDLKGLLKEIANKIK
Chain of Transient receptor potential cation channel subfamily V member 4 (Q9ERZ8 whole entry): as the sequence (Q9ERZ8 whole entry) above
Chain of Transient receptor potential cation channel subfamily A member 1 (Rattus norvegicus) (Q6RI86 whole entry): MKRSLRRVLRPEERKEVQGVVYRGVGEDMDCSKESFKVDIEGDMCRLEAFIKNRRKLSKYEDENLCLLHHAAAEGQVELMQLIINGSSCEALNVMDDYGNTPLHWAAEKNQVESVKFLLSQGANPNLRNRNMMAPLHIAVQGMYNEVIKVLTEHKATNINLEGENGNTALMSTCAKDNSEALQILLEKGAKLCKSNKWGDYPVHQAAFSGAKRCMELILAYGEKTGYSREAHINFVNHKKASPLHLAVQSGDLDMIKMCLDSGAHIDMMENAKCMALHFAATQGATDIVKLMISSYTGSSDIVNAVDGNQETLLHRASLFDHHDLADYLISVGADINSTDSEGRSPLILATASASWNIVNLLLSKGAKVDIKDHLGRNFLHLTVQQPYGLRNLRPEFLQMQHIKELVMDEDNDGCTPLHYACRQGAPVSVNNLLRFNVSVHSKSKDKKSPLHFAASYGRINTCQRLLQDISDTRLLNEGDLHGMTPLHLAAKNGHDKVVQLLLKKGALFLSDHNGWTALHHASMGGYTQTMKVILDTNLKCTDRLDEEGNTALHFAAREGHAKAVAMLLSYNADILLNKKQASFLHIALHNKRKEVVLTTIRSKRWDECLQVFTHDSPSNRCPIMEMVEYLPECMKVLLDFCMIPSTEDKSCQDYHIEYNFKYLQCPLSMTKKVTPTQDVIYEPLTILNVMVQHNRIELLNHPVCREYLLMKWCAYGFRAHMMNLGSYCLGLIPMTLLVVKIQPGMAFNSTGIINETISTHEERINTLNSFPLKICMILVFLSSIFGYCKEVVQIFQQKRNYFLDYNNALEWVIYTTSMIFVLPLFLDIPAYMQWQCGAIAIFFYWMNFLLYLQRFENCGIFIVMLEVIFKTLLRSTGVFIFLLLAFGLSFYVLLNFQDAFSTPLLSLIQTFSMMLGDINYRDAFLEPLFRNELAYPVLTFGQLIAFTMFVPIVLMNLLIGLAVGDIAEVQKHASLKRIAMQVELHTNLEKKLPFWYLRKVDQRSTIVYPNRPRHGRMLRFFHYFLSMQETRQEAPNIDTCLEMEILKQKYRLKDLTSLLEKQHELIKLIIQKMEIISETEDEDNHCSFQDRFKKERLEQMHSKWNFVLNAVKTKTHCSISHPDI
T1 sequence (Q6RI86 whole entry): as above
T2 sequence (Q8NER1 whole entry): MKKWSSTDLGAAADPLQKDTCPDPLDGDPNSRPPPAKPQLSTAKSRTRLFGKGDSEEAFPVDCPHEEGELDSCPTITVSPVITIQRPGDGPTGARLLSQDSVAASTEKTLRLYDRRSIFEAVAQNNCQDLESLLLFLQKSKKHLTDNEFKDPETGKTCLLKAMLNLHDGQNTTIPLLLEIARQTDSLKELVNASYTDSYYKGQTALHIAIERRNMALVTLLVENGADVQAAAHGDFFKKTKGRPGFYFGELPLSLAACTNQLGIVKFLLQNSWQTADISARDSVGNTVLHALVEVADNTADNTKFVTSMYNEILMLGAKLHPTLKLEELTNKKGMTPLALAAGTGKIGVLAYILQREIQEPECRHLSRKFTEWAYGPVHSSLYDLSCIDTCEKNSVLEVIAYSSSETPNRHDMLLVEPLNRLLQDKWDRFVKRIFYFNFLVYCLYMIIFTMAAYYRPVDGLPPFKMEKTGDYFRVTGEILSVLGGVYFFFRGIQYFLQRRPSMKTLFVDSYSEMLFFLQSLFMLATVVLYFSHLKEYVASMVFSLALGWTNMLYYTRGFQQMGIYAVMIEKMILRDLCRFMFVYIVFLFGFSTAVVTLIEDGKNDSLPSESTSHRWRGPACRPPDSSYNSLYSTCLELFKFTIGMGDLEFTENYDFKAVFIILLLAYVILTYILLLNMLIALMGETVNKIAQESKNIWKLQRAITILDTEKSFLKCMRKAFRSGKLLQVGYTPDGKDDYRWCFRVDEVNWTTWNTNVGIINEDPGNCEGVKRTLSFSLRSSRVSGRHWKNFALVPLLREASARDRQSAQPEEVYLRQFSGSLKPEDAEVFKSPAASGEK

EC50 [1]: 30.3 µM
SMILES: O=C(CCCc1ccc(I)s1)Nc1ccc(O)cc1
IC50 [2]: 44.1 µM

EC50 [1]: 12 µM
SMILES: O=C(CCCc1ccc(-c2ccccc2)s1)NCc1ccc(Cl)c(Cl)c1
IC50 [2]: > 50 µM

EC50 [3]: > 50 µM
Efficacy [5]: < 10%
Activity [6]: inactive
SMILES: O=C(CCCc1ccccc1)NCc1ccccc1
IC50 [4]: > 100 µM
IC50 [2]: > 100 µM

EC50 [1]: 27.2 µM
SMILES: COc1cc(CNC(=O)CCCc2ccccc2)ccc1O
IC50 [2]: 44.5 µM

EC50 [3]: > 50 µM
Efficacy [5]: 21%
EC50 [1]: > 50 µM
SMILES: COc1ccc(CNC(=O)CCCc2ccc(-c3cccnc3)s2)cc1
IC50 [4]: > 50 µM
IC50 [2]: > 50 µM

EC50 [3]: > 10 µM
Efficacy [5]: < 10%
Activity [6]: inactive
SMILES: O=C(CCCc1ccc(-c2cccnc2)s1)NCc1ccccc1
IC50 [4]: > 100 µM
IC50 [2]: > 100 µM

EC50 [1]: 27.1 µM
SMILES: O=C(CCCc1ccc(-c2cccnc2)s1)NCc1ccc(O)cc1
IC50 [2]: > 50 µM

EC50 [1]: 10.4 µM
SMILES: O=C(CCCc1ccc(-c2cccnc2)s1)NCc1ccc(Cl)c(Cl)c1
IC50 [2]: > 50 µM

EC50 [3]: 2.63 µM
Efficacy [5]: < 10%
Activity [6]: inactive
SMILES: O=C(CCCc1ccccc1)NCCc1ccc(O)c(O)c1
IC50 [4]: 5.84 µM
IC50 [2]: > 10 µM

EC50 [1]: 10.7 µM
SMILES: O=C(CCCc1ccccc1)NCc1ccc(Cl)c(Cl)c1
IC50 [2]: 11.9 µM

EC50 [1]: 18.7 µM
SMILES: COc1cc(CNC(=O)CCCc2ccc(-c3ccccc3)s2)ccc1O
IC50 [2]: 33.7 µM
IC50 [7]: 27.6 µM
IC50 [8]: 13.8 µM

EC50 [3]: > 10 µM
Efficacy [5]: < 10%
Activity [6]: inactive
SMILES: O=C(CCCc1ccc(-c2cccnc2)s1)NCCc1ccc(O)c(O)c1
IC50 [4]: > 10 µM
IC50 [2]: > 100 µM

EC50 [3]: 1.15 µM
Efficacy [5]: < 10%
Activity [6]: inactive
SMILES: O=C(CCCc1ccc(I)s1)NCCc1ccc(O)c(O)c1
IC50 [4]: 0.46 µM
IC50 [2]: > 100 µM

Efficacy [13]: 88.5%
SMILES: CC(C)C[C@H](NC(=O)c1cc2ccccc2s1)C(=O)N1CCN(C(=O)[C@H](CO)NS(=O)(=O)c2ccc(Cl)cc2Cl)CC1

EC50 [1]: > 50 µM
SMILES: O=C(CCCc1ccc(I)s1)NCc1ccc(Cl)c(Cl)c1
IC50 [2]: 19.2 µM

Second part, the compound before the results:

SMILES: COc1ccc(CNC(=O)CCCc2ccccc2)cc1
IC50 [2]: > 100 µM

SMILES: O=C(CCCc1ccc(-c2ccccc2)s1)NCc1ccc(O)cc1
IC50 [2]: > 50 µM

SMILES: O=C(CCCc1ccc(-c2cccnc2)s1)Nc1ccc(O)cc1
IC50 [2]: > 100 µM

SMILES: O=C(CCCc1ccc(I)s1)NCc1ccccc1
IC50 [2]: > 100 µM

SMILES: COc1cc(CNC(=O)CCCc2ccc(I)s2)ccc1O
IC50 [2]: > 50 µM
Activity (HUVEC): Non-Toxic
Activity (HaCaT): Non-Toxic
IC50 [7]: > 50 µM
IC50 [8]: 16.8 µM
Activity [9]: Non-Toxic

SMILES: COc1cc(CNC(=O)CCCc2ccc(-c3cccnc3)s2)ccc1O
IC50 [2]: > 100 µM
Activity (HUVEC): Non-Toxic
Activity (HaCaT): Non-Toxic
IC50 [7]: > 100 µM
IC50 [8]: > 100 µM
Time (Mus musculus [10]): 0.758 min
Time (Mus musculus [11]): 0.618 min
Time (Mus musculus [12]): 1.95 min
Activity [9]: Non-Toxic

SMILES: O=C(CCCc1cccs1)NCc1ccccc1
IC50 [2]: > 100 µM

SMILES: O=C(CCCc1ccc(-c2ccccc2)s1)NCc1ccccc1
IC50 [2]: > 100 µM

SMILES: O=C(CCCc1ccccc1)Nc1ccc(O)cc1
IC50 [2]: > 10 µM

SMILES: O=C(CCCc1ccccc1)NCc1ccc(O)cc1
IC50 [2]: > 100 µM

SMILES: COc1ccc(CNC(=O)CCCc2ccc(I)s2)cc1
IC50 [2]: > 100 µM

SMILES: O=C(CCCc1ccc(-c2ccccc2)s1)Nc1ccc(O)cc1
IC50 [2]: > 50 µM

SMILES: O=C(CCCc1ccc(I)s1)NCc1ccc(O)cc1
IC50 [2]: > 100 µM
